Experimental data published in article PMC5452050 (ACS Omega, 2017).
Values after ≈ are worked out from the molar mass of the structure shown. Each block holds one compound with its values, some of them ahead of it.

Legend:
[1] = target: T1, recombinant human FLT3 (571–993) (Homo sapiens, UniProt P36888); test: biochemical; format: biochemical; conditions: for IC50: FLT3 IC50, FLT3^WT enzyme, 500 μM ATP
T1 sequence (P36888 571-993): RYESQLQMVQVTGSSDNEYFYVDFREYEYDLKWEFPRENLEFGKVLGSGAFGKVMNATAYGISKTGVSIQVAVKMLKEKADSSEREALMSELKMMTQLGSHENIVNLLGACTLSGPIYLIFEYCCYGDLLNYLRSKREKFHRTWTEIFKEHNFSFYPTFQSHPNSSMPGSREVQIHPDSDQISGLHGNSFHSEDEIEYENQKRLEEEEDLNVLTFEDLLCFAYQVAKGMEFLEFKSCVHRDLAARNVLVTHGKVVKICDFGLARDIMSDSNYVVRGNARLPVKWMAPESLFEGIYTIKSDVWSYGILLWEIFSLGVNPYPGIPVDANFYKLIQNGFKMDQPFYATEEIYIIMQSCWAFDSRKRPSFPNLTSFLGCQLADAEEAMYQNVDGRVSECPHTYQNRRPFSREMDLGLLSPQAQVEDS

[2] = tested on: MV4-11 cells; test: MV4-11 cell proliferation; format: cell-based; conditions: for EC50: Homo sapiens, MV4-11, 72 h, read-out: MV4-11 EC50
[3] = tested on: BJ cells; test: BJ fibroblast proliferation; format: cell-based; conditions: Homo sapiens, 72 h, read-out: BJ EC50, 72 h
[4] = Liver microsomal stability; conditions: rat, liver microsomes, pH 7.4
[5] = Liver microsomal stability; conditions: dog, liver microsomes, pH 7.4
[6] = tested on: FLT3-ITD phosphorylation; test: Western blot of FLT3 signaling in MOLM13^FLT3-ITD cells; format: cell-based; conditions: 1 h, read-out: FLT3 IC50 estimated from loss of FLT3-ITD phosphorylation
[7] = Plasma stability; format: in vitro ADME; conditions: human
[8] = Liver microsomal stability; conditions: both, human, liver microsomes, pH 7.4
[9] = Plasma stability; format: in vitro ADME; conditions: mouse
[10] = tested on: MOLM13^FLT3-ITD cells; test: MOLM13 cell viability; format: cell-based; conditions: Homo sapiens, MOLM-13, 72 h, read-out: MOLM13^FLT3-ITD IC50
[11] = tested on: MOLM13^FLT3-ITD/D835Y cells; test: MOLM13 cell viability; format: cell-based; conditions: Homo sapiens, MOLM-13, 72 h, read-out: MOLM13^FLT3-ITD/D835Y IC50
[12] = Solubility; format: physicochemical; conditions: buffer, pH 7.4, aqueous buffer, kinetic from dmso stock
[13] = Plasma stability; format: in vitro ADME; conditions: rat
[14] = Liver microsomal stability; conditions: female, CD-1, mouse, liver microsomes, pH 7.4

Compound: c1cncc(-c2cccc(Nc3cc(NC4CCCCC4)ccn3)c2)c1 [Compound 13, N^4-cyclohexyl-N^2-(3-(pyridin-3-yl)phenyl)pyridine-2,4-diamine]
EC50 [3]: 10600 nM | IC50 [1]: 1500 nM | EC50 [2]: > 16000 nM

Compound: CN(c1cccc(-c2cccnc2)c1)c1nccc(NC2CCCCC2)n1 [Compound 21, N^4-Cyclohexyl-N^2-methyl-N^2-(3-(pyridin-3-yl)phenyl)pyrimidine-2,4-diamine]
IC50 [1]: > 11000 nM | EC50 [2]: > 4000 nM

Compound: CC[C@H](C)Nc1ccnc(Nc2cccc(-c3cccnc3)c2)n1 [Compound 5j, (S)-N^4-(sec-Butyl)-N^2-(3-(pyridin-3-yl)phenyl)pyrimidine-2,4-diamine]
fold improvement in MV4-11 growth inhibition relative to 1 [2]: approximately 10 fold

Compound: CC(C)(C)c1cc(NC(=O)Nc2ccc(-c3cn4c(n3)sc3cc(OCCN5CCOCC5)ccc34)cc2)no1 [quizartinib, reference compound]
EC50 [3]: > 22000 nM | EC50 [2]: 0.7 nM

Compound: CC[C@@H](C)Nc1ccnc(Nc2cccc(-c3cccnc3)c2)n1 [Compound 5k, (R)-N^4-(sec-Butyl)-N^2-(3-(pyridin-3-yl)phenyl)pyrimidine-2,4-diamine]
fold improvement in MV4-11 growth inhibition relative to 1 [2]: approximately 10 fold

Compound: CN(c1ccnc(Nc2cccc(-c3cccnc3)c2)n1)C1CCCCC1 [Compound 16, N^4-Cyclohexyl-N^4-methyl-N^2-(3-(pyridin-3-yl)phenyl)pyrimidine-2,4-diamine]
IC50 [1]: 82 nM | EC50 [2]: > 8000 nM

Compound: CC(C)(C)Nc1ccnc(Nc2cccc(-c3cccnc3)c2)n1 [Compound 5f, N^4-(tert-Butyl)-N^2-(3-(pyridin-3-yl)phenyl)pyrimidine-2,4-diamine]
fold improvement in MV4-11 growth inhibition relative to 1 [2]: approximately 10 fold

Second part, led by results:

IC50 [1]: 187 nM | EC50 [2]: > 6000 nM
Compound: c1cncc(-c2cccc(Nc3nccc(OC4CCCCC4)n3)c2)c1 [Compound 19, 4-(Cyclohexyloxy)-N-(3-(pyridin-3-yl)phenyl)pyrimidin-2-amine]

IC50 [1]: 141 nM | EC50 [2]: > 8000 nM
Compound: c1cncc(-c2cccc(Nc3ccnc(NC4CCCCC4)c3)c2)c1 [Compound 14, N^2-Cyclohexyl-N^4-(3-(pyridin-3-yl)phenyl)pyridine-2,4-diamine]
EC50 [3]: 8740 nM

IC50 [1]: > 15000 nM | EC50 [2]: 39 nM
Compound: CN(c1cccc(-c2cccnc2)c1)c1nccc(N(C)C2CCCCC2)n1 [Compound 17, N^4-Cyclohexyl-N^2,N^4-dimethyl-N^2-(3-(pyridin-3-yl)phenyl)pyrimidine-2,4-diamine]

fold reduction of FLT3 enzymatic activity compared to 1 [1]: ~40 fold | IC50 [1]: 1260 nM | EC50 [2]: > 14000 nM
Compound: c1cncc(-c2cccc(Oc3nccc(NC4CCCCC4)n3)c2)c1 [Compound 22, N-Cyclohexyl-2-(3-(pyridin-3-yl)phenoxy)pyrimidin-4-amine]

IC50 [1]: 80 nM | EC50 [2]: > 10000 nM
Compound: c1cncc(-c2cccc(Nc3cccc(NC4CCCCC4)n3)c2)c1 [Compound 9, N^2-Cyclohexyl-N^6-(3-(pyridin-3-yl)phenyl)pyridine-2,6-diamine]
EC50 [3]: > 10000 nM

IC50 [1]: 49 nM | EC50 [2]: > 13000 nM
Compound: c1cncc(-c2cccc(Oc3nccc(OC4CCCCC4)n3)c2)c1 [Compound 20, 4-(Cyclohexyloxy)-2-(3-(pyridin-3-yl)phenoxy)pyrimidine]

CLint scaled at 4 µM [4]: 122 mL/min/kg | half-life at 4 µM [4]: 22.8 ± 0.6 min | CLint scaled at 4 µM [5]: 37 mL/min/kg | half-life at 4 µM [5]: 54 ± 1.2 min | IC50 [6]: 50 to 100 nM | plasma stability [7]: >50 h | CLint scaled at 4 µM [8]: 14.2 mL/min/kg | half-life at 4 µM [8]: 87.6 ± 6 min | plasma stability [9]: >50 h | IC50 [10]: 45 nM | IC50 [11]: 77 nM | solubility at 18 h [12]: 56.9 ± 1.9 µM (≈ 17.4 µg/mL) | plasma stability [13]: >50 h | CLint scaled at 4 µM [14]: 485 mL/min/kg | half-life at 4 µM [14]: 7.08 ± 0.18 min
Compound: CC(C)Nc1ccnc(Nc2cccc(-c3cnccn3)c2)n1 [Compound 6k, N^4-Isopropyl-N^2-(3-(pyrazin-2-yl)phenyl)pyrimidine-2,4-diamine]

fold more potent than 1 against FLT3 [1]: approximately 4 fold
Compound: c1cncc(-c2cccc(Nc3nccc(NC4CCNCC4)n3)c2)c1 [Compound 5q, N^4-(Piperidin-4-yl)-N^2-(3-(pyridin-3-yl)phenyl)pyrimidine-2,4-diamine]
